Our source for the melting point and mortality values is US9615576B2, “Pesticidal compositions and processes related thereto” (Dow AgroSciences LLC, priority 2011, dated 2017).

Data set [1] concerns Beet Armyworm (BAW) (Spodoptera exigua). The experiment in a line: Bioassays on Beet Armyworm (BAW), 128-well diet tray assay. In kind it is in vivo. The note with it: 168 h, 50 μg/cm^2 test compound on artificial diet, second instar larvae, 25° C., five to seven days, average of eight wells, read-out: BAW Rating (% mortality). The essentials:
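Second-instar larvae (1–5 per well) on artificial diet surface-treated with 50 μg/cm^2 compound applied in 90:10 acetone-water and dried; eight wells per compound. Held 5–7 days at 25° C., 14:10 light-dark. Percent mortality scored per well and averaged over eight wells.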

Data set [2] deals with Corn Earworm (CEW) (Helicoverpa zea). The experiment in a line: Bioassays on Corn Earworm (CEW), 128-well diet tray assay. It counts as in vivo. Particulars: 168 h, 50 μg/cm^2 test compound on artificial diet, second instar larvae, 25° C., five to seven days, average of eight wells, read-out: CEW Rating (% mortality). In short, it runs like this:
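Second-instar larvae (one to five per well) placed on artificial diet treated with 50 μg/cm^2 compound in 90:10 acetone-water, dried; eight wells per compound. Held at 25° C, 14:10 light-dark, five to seven days; percent mortality averaged over wells.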

Take `NC(=O)c1ccc(/C=C/C(c2cc(Cl)cc(Cl)c2)C(F)(F)F)cc1` (stereo not shown) [AC2]: the melting point lay in the range of 110 to 112 °C. In the case of `C/C(=C\C(c1cc(Cl)cc(Cl)c1)C(F)(F)F)c1ccc(-n2cncn2)cc1` (stereo not shown) [DC68, (E)-1-(4-(4-(3,5-dichlorophenyl)-5,5,5-trifluoropent-2-en-2-yl)phenyl)-1H-1,2,4-triazole], the mortality at 50 µg/cm2 in data set [1] and in data set [2] was 50 to 100% each time. `OC(/C=C/c1ccc(-n2cncn2)cc1)(c1cc(Cl)cc(Cl)c1)C(F)(F)F` (stereo not shown) [DC69, (E)-4-(4-(1H-1,2,4-triazol-1-yl)phenyl)-2-(3,5-dichlorophenyl)-1,1,1-trifluorobut-3-en-2-ol]: the mortality at 50 µg/cm2 in data set [1] and in data set [2] was 0% in each case. Consider `COC(/C=C/c1ccc(-n2cncn2)cc1)(c1cc(Cl)cc(Cl)c1)C(F)(F)F` (stereo not shown) [DC70, (E)-1-(4-(3-(3,5-dichlorophenyl)-4,4,4-trifluoro-3-methoxybut-1-en-1-yl)phenyl)-1H-1,2,4-triazole], for which the mortality at 50 µg/cm2 in data set [1] and in data set [2] was 50 to 100% throughout.
